Tests used:
Assay type in all cases: cell-based
[1] = test system: OVCAR-4; test: NCI-60 cell line panel: OVCAR-4; details: Homo sapiens, Ovarian Cancer
Experimental: (§1) It was carried out at the NCI, Bethesda, MD, USA, utilizing their standard protocol.

[2] = test system: BT-549; test: NCI-60 cell line panel: BT-549; details: Breast Cancer
Experimental: as §1

[3] = test system: HS 578T; test: NCI-60 cell line panel: HS 578T
Experimental: as §1

[4] = test system: SF-295; test: NCI-60 cell line panel: SF-295; details: CNS Cancer
Experimental: as §1

[5] = test system: HCT-116; test: NCI-60 cell line panel: HCT-116; details: Colon Cancer
Experimental: as §1

[6] = test system: HOP-92; test: NCI-60 cell line panel: HOP-92; design: TGI: unit not given here; details: Non-Small Cell Lung Cancer
Experimental: as §1

[7] = test system: HT29; test: NCI-60 cell line panel: HT29
Experimental: as §1

[8] = test system: MCF7; test: NCI-60 cell line panel: MCF7; details: Breast Cancer
Experimental: as §1

[9] = test system: NCI-H522; test: NCI-60 cell line panel: NCI-H522; design: TGI: unit not given here; details: Non-Small Cell Lung Cancer
Experimental: as §1

[10] = test system: 786-0; test: NCI-60 cell line panel: 786-0; details: Renal Cancer
Experimental: as §1

[11] = test system: UACC-257; test: NCI-60 cell line panel: UACC-257; details: Melanoma
Experimental: as §1

[12] = test system: EKVX; test: NCI-60 cell line panel: EKVX; details: Homo sapiens, Non-Small Cell Lung Cancer
Experimental: as §1

[13] = test system: MOLT-4; test: NCI-60 cell line panel: MOLT-4; design: TGI: unit not given here; details: Leukemia
Experimental: as §1

[14] = test system: SK-MEL-5; test: NCI-60 cell line panel: SK-MEL-5; details: Melanoma
Experimental: as §1

[15] = test system: SNB-19; test: NCI-60 cell line panel: SNB-19; details: CNS Cancer
Experimental: as §1

[16] = test system: SN12C; test: NCI-60 cell line panel: SN12C; details: Renal Cancer
Experimental: as §1

[17] = test system: NCI-H322M; test: NCI-60 cell line panel: NCI-H322M; details: Non-Small Cell Lung Cancer
Experimental: as §1

[18] = test system: MALME-3M; test: NCI-60 cell line panel: MALME-3M; details: Melanoma
Experimental: as §1

[19] = test system: MDA-MB-468; test: NCI-60 cell line panel: MDA-MB-468; details: Breast Cancer
Experimental: as §1

[20] = test system: SK-MEL-2; test: NCI-60 cell line panel: SK-MEL-2; design: TGI: unit not given here; details: Melanoma
Experimental: as §1

[21] = test system: PC-3; test: NCI-60 cell line panel: PC-3; details: Prostate Cancer
Experimental: as §1

[22] = test system: A549/ATCC; test: NCI-60 cell line panel: A549/ATCC; details: Non-Small Cell Lung Cancer
Experimental: as §1

[23] = test system: NCI-H460; test: NCI-60 cell line panel: NCI-H460; details: Non-Small Cell Lung Cancer
Experimental: as §1

[24] = test system: OVCAR-3; test: NCI-60 cell line panel: OVCAR-3; details: Ovarian Cancer
Experimental: as §1

[25] = test system: COLO 205; test: NCI-60 cell line panel: COLO 205; design: TGI: unit not given here; details: Colon Cancer
Experimental: as §1

[26] = test system: U251; test: NCI-60 cell line panel: U251; design: TGI: unit not given here
Experimental: as §1

[27] = test system: HOP-62; test: NCI-60 cell line panel: HOP-62; details: Non-Small Cell Lung Cancer
Experimental: as §1

[28] = test system: OVCAR-8; test: NCI-60 cell line panel: OVCAR-8; details: Ovarian Cancer
Experimental: as §1

[29] = test system: UACC-62; test: NCI-60 cell line panel: UACC-62; details: Melanoma
Experimental: as §1

[30] = test system: NCI-H23; test: NCI-60 cell line panel: NCI-H23; details: Non-Small Cell Lung Cancer
Experimental: as §1

[31] = total growth inhibition, in µM (unit assumed)

CCN1CCN(c2ccc(NC(=O)Nc3ccc(-c4cc(C(=O)NC)c5ncccc5n4)cc3)cc2C(F)(F)F)CC1 [Compound 13c, 2-(4-(3-(4-(4-Ethylpiperazin-1-yl)-3-(trifluoromethyl)phenyl)ureido)phenyl)-N-methyl-1,5-naphthyridine-4-carboxamide]
IC50 [1]: 2630 nM | TGI ([2]; total growth inhibition): 5670 nM | IC50 ([2]; Homo sapiens): 2780 nM | TGI ([3]; Breast Cancer, HS 578T, total growth inhibition): 6880 nM | IC50 ([3]; Homo sapiens, Hs-578T): 2390 nM | TGI ([4]; total growth inhibition, unit assumed): 4470 nM | IC50 ([4]; Homo sapiens): 2060 nM | TGI ([5]; total growth inhibition): 4830 nM | IC50 ([5]; Homo sapiens): 1120 nM | IC50 ([6]; Homo sapiens): 2450 nM | TGI ([6]; total growth inhibition): 5.67 | TGI ([7]; Colon Cancer, total growth inhibition): 2110 nM | IC50 ([7]; Homo sapiens, HT-29, Colon Cancer): 530 nM | TGI ([8]; total growth inhibition): 610 nM | IC50 ([8]; Homo sapiens): 290 nM | IC50 ([9]; Homo sapiens): 3230 nM | TGI ([9]; total growth inhibition): 6.40 | IC50 ([10]; Homo sapiens): 300 nM | TGI ([10]; total growth inhibition): 580 nM | IC50 ([11]; Homo sapiens): 3050 nM | TGI ([11]; total growth inhibition): 5990 nM | IC50 [12]: 2940 nM | IC50 ([13]; Homo sapiens): 700 nM | TGI ([13]; total growth inhibition): >18.0 | IC50 ([14]; Homo sapiens): 2050 nM | TGI ([14]; total growth inhibition): 4260 nM | TGI ([15]; total growth inhibition): 5480 nM | IC50 ([15]; Homo sapiens): 2970 nM | IC50 ([16]; Homo sapiens): 2770 nM | TGI ([16]; total growth inhibition): 5300 nM | IC50 ([17]; Homo sapiens): 2800 nM | TGI ([17]; total growth inhibition): 5200 nM | IC50 ([18]; Homo sapiens): 290 nM | TGI [18, 31]: 0.53 | TGI ([19]; total growth inhibition): 5030 nM | IC50 ([19]; Homo sapiens): 2480 nM | IC50 ([20]; Homo sapiens): 9870 nM | TGI ([20]; total growth inhibition): >18.0 | IC50 ([21]; Homo sapiens): 2880 nM | TGI ([21]; total growth inhibition): 6030 nM | IC50 ([22]; Homo sapiens): 470 nM | TGI ([22]; total growth inhibition): 1300 nM | IC50 ([23]; Homo sapiens): 660 nM | TGI ([23]; total growth inhibition): 2930 nM | IC50 ([24]; Homo sapiens): 2540 nM | TGI ([24]; total growth inhibition): 5060 nM | TGI ([25]; total growth inhibition): 14.20 | IC50 ([25]; Homo sapiens): 4150 nM | TGI ([26]; CNS Cancer, total growth inhibition): 5.53 | IC50 ([26]; Homo sapiens, U-251, CNS Cancer): 2690 nM | IC50 ([27]; Homo sapiens): 2790 nM | TGI ([27]; total growth inhibition): 5410 nM | IC50 ([28]; Homo sapiens): 3850 nM | TGI [28, 31]: 10.50 | IC50 ([29]; Homo sapiens): 3060 nM | TGI ([29]; total growth inhibition): 5660 nM | IC50 ([30]; Homo sapiens): 2680 nM | TGI ([30]; total growth inhibition): 5680 nM

From US20240308996A1, “PYRIDOPYRIDINES AND DERIVATIVES THEREOF AS SELECTIVE KINASE INHIBITORS” (University of Sharjah, priority 2023, published 2024)
